Results: paper PMC8141073, “Structurally Diverse Sesquiterpenoids with Anti-neuroinflammatory Activity from the Endolichenic Fungus Cryptomarasmius aucubae” (Natural Products and Bioprospecting, 2021)

Legend:
[1] = test system: NO production induced by LPS in BV-2 microglial cells; assay: Nitric oxide (NO) production inhibitory assay (Griess reaction); assay type: cell-based, murine; conditions: for IC50 / inhibition at 20 µM: Mus musculus; for IC50: LPS (1 μg/mL)-induced BV-2 microglial cells, 24 h, 0.1–20.0 μM, read-out: IC50, inhibition of NO production; for inhibition at 20 µM / anti-inflammatory activity (reducing the release of NO), in words: LPS-induced BV-2 microglial cells
Procedure: BV-2 cells were seeded into 96-well plates at 2 × 10^4 cells/100 μL of medium and incubated for 24 h. Then, cells were treated with 1 μg/mL of lipopolysaccharide (LPS) and various concentrations (0.1–20.0 μM) of test compounds (DMSO as solvent) for 24 h. An equal amount of DMSO and LPS were served as the controls; quercetin (J&K Scientific, Beijing, China) was taken as the positive control). The NO concentration in the medium was measured by using a Nitric Oxide Assay Kit, according to the accumulated levels of nitrite in the supernatants by a standard Griess reaction. As follows, 50 μL of the culture supernatant of BV-2 cells was reacted with 50 μL of Griess reagent I and Griess regent II successively in a 96-well plate. The absorbance at 570 nm of the mixture was measured using a microplate reader. IC50 values were calculated as the concentrations that reduced NO production by 50%. Quercetin was taken as the positive control.

[2] = Cell viability by MTT assay; assay type: cell-based, murine; conditions: mouse, BV-2 microglial cells, percentage of the LPS-only treatment group, compounds at 20 μM, 1 μg/mL LPS, BV-2 cells
Procedure: BV-2 murine microglial cells, acquired from Peking Union Medical College Cell Bank, were cultured in Dulbecco’s modified Eagle’s medium supplemented with 10% (v/v) heat-inactivated fetal bovine serum, penicillin (100 U/mL), and streptomycin ([…]) in carbon dioxide cell incubator. When cell growth density outnumbered 90%, BV-2 cells were seeded in 96-well plates at a density of 2 × 10^4/well, 100 μL) and incubated for 24 h. Next, the cells were treated with the compounds (DMSO as solvent) at 20 μM for 24 h in DMEM with 1 μg/mL LPS. Cells treated with DMSO alone were used as the negative control. After adding 20 μL of 10 mg/mL MTT reagent to each well, the samples were shaken lightly and incubated at 37 °C for 4 h. The supernatant was removed, the blue-purple crystals were fully dissolved in DMSO (200 μL), and the absorbance of each well was read at 570 nm (Tecan Sunrise, Switzerland). Percentage of cell viability is calculated as: (absorbance of treated well/absorbance of control well) × 100%.

Compound | IC50 [1] | inhibition at 20 µM [1] | anti-inflammatory activity (reducing the release of NO), in words [1] | viability at 24 h, 20 µM [2]
CC1=CC2C(C[C@H]1O)[C@@](C)(O)CC[C@H]2C(C)C (stereo partly drawn) [Compound 7, murolane-2α, 9β-diol-3-ene] | > 20 µM | 51.7% | – | –
CC(=O)O[C@@]12CC[C@]1(C)C[C@H]1C[C@@](C)(CO)CC1=C2C [Compound 5, sterpurol B] | 9.06 ± 1.13 µM | 99.3% | significant anti-inflammatory activity | 107 ± 2.73%
C/C(=C\CO)CC/C=C(\C)CC[C@@H](O)C(C)(C)O [Compound 8, (–)-10,11-dihydroxyfarnesol] | 12.2 ± 0.4 µM | 76.8% | moderate anti-inflammatory activity | 99.12 ± 0.18%
CC(=O)O[C@@]12C[C@H](O)[C@]1(C)C[C@H]1C[C@@](C)(CO)CC1=C2C [Compound 2, sterpurol E] | 9.93 ± 0.99 µM | 85.4% | moderate anti-inflammatory activity | 97.1 ± 4%
CC(=O)OCC1(C)CC2=C(C)C3(OC(C)=O)CCC3(C)CC2C1 (centres unmarked) [Compound 1, sterpurol D] | 14.8 ± 2.23 µM | 75.9% | moderate anti-inflammatory activity | 103 ± 4.73%
CC1=C2C[C@](C)(CO)C[C@@H]2C[C@@]2(C)CC[C@@]12O [Compound 4, sterpurol A] | 15.3 ± 1.43 µM | 73.1% | moderate anti-inflammatory activity | 98.7 ± 1.18%
O=c1c(O)c(-c2ccc(O)c(O)c2)oc2cc(O)cc(O)c12 [Quercetin, quercetin, reference compound] | 9.75 ± 0.79 µM | 95.6% | – | 101.5 ± 0.83%
CC1=C2C[C@@](C)(C(=O)O)C[C@H]2C[C@](C)(O)C12CC2 [Compound 6, paneolilludinic acid] | 11.5 ± 0.58 µM | 79.1% | moderate anti-inflammatory activity | 104 ± 2.67%
